Assay results as given in US11773096B2, “Small-molecule PI5P4K alpha/beta inhibitors and methods of treatment using same” (YALE UNIVERSITY, priority 2018, dated 2023).
pKi: −log10 of the molar value.

Tests used:
PI3Kδ = PI3Kδ (Homo sapiens, UniProt O00329); assay: Lipid kinase panel (ADP-Glo)
Procedure: In both titrations, the ATP concentration was fixed at 50 μM.

L6 myotubes [1] = assay: Immunoblot analysis of ACC phosphorylation in L6 myotubes; assay type: cell-based, rat; settings: dose-dependent
Procedure: BT-474 and MCF7 breast cancer cells, C2Cl2 mouse myoblast cells, and HEK 293T cells were maintained in high-glucose DMEM medium containing 10% FBS. L6 rat myoblast cells were maintained in α-MEM medium containing 10% FBS. For differentiation into myotubes, C2Cl2 cells were kept in DMEM medium containing 2% horse serum for 5 days, and L6 cells were kept in α-MEM medium containing 2% FBS for 7 days. Amino-acid-free DMEM medium was prepared using powder from USBio, and MEM amino acids solution was from Gibco. Media were all supplemented with 100 U/ml penicillin/streptomycin. Cell lines were purchased from ATCC.
(§1) After wash with cold DPBS buffer, cells were lysed in RIPA buffer that contained 50 mM Tris-HCl pH 8.0, 150 mM NaCl, 1 mM EDTA, 1 mM EGTA, 1% NP-40, 0.5% sodium deoxycholate, 0.1% SDS, and protease and phosphatase inhibitor cocktails (Roche). Total protein concentrations were measured using a BCA assay (Thermo scientific). Cell lysate (about 80 μg protein) was resolved by SDS-PAGE and blotted onto PVDF membranes. The membranes were probed overnight at 4° C. with appropriate primary antibodies (Cell Signaling Technology) and incubated with secondary fluorescent antibodies (LI-COR Biosciences) for 1 hr at room temperature before imaging by an Odyssey CLx system.

PI4P5Kγ = PI4P5Kγ (Homo sapiens, UniProt O60331); assay: Lipid kinase panel (ADP-Glo); settings: read-out: PI4P5Kγ activity remaining
BT474 cells [2] = assay: Cell cycle analysis by flow cytometry; assay type: cell-based
Procedure: To monitor cell cycle progression, cells were harvested by trypsinization, washed with DPBS, and fixed with cold 70% ethanol for 30 min at 4° C. Before analysis, 2×10^6 cells were washed with DPBS three times and treated with 100 μl 100 μg/ml ribonuclease (DNase-free; Sigma Aldrich) for 10 min at room temperature. Samples were then stained for total DNA using 400 μl DPBS containing 50 μg/ml propidium iodide (Invitrogen). Cell cycle distribution was analyzed by a BD LSR II flow cytometer.

PIKfyve = PIKfyve (Homo sapiens, UniProt Q9Y2I7); assay: Lipid kinase assay
Chain of PIKfyve (Q9Y2I7 whole entry, species assumed): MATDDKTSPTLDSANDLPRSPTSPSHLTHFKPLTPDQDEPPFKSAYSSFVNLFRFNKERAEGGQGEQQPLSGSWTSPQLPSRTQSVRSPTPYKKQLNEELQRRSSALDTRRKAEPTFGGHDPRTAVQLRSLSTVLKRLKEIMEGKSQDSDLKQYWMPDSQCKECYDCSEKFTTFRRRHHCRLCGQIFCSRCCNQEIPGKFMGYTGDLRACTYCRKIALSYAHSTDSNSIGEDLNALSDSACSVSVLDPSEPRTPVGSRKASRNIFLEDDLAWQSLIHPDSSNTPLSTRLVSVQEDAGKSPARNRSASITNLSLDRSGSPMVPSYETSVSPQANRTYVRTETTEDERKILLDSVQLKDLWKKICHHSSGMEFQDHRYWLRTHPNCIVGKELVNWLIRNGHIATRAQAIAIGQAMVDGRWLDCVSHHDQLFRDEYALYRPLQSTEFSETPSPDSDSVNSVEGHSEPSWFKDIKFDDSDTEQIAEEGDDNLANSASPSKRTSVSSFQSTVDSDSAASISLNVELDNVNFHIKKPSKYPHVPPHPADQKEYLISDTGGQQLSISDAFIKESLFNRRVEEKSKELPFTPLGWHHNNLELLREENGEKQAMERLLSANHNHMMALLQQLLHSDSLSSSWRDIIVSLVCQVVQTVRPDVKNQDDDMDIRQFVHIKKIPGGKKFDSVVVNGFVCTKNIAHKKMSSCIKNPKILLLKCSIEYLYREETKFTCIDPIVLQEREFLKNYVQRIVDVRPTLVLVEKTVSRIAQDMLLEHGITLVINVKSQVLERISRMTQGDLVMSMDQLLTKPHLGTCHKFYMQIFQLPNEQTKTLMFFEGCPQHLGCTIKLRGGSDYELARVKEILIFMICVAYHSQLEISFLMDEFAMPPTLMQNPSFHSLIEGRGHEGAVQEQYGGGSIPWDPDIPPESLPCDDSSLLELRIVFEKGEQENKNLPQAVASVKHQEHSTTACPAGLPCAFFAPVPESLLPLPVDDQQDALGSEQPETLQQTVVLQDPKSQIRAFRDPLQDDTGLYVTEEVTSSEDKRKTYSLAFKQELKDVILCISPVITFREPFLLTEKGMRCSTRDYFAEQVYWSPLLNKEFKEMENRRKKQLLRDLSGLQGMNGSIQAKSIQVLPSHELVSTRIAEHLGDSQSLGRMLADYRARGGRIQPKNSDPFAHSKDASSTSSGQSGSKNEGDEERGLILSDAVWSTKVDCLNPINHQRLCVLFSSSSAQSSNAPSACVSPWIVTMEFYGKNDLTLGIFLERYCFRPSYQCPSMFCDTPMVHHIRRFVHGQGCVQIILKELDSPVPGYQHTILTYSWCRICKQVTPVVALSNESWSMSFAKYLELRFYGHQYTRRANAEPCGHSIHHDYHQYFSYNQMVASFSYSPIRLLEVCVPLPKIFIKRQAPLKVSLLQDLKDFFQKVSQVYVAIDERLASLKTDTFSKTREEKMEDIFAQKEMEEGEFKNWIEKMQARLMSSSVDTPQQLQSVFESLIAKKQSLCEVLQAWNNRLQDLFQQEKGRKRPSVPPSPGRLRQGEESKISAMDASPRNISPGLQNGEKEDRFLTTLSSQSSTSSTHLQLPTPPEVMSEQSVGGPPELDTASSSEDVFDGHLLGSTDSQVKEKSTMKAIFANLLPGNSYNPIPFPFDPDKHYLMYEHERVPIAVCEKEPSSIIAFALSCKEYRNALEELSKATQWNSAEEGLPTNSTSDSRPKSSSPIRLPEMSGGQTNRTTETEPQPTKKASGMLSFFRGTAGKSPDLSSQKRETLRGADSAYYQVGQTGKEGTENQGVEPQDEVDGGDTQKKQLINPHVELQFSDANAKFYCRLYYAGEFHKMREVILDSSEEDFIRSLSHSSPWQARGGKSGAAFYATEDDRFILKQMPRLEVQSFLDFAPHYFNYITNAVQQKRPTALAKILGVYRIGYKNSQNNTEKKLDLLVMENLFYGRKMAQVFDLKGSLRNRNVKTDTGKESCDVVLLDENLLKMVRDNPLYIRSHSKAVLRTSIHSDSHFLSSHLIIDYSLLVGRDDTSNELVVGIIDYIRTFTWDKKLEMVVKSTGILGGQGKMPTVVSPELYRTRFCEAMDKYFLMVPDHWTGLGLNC

BT474 cells [3] = assay: Immunoblot analysis in BT474 cells; assay type: cell-based
Procedure: as §1

Plk1 = Plk1 (Homo sapiens, UniProt P53350); assay: HotSpot protein kinase panel; settings: read-out: Plk1 activity remaining
Chain of Plk1 (P53350 whole entry): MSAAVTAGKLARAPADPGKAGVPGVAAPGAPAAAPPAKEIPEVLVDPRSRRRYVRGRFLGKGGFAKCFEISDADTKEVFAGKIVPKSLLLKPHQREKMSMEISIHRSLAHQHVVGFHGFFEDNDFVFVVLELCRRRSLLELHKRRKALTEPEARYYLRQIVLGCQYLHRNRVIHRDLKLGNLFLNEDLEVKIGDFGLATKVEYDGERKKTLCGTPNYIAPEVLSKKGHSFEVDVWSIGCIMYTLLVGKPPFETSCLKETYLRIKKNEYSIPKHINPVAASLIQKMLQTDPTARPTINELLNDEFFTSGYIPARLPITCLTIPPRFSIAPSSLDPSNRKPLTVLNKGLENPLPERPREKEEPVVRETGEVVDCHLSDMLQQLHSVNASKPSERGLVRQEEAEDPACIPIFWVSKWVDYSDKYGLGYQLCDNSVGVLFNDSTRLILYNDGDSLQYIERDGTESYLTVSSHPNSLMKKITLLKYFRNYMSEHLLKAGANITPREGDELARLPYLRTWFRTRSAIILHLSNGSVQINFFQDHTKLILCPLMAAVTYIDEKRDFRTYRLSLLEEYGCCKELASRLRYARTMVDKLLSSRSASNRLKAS
Procedure: In both titrations, the ATP concentration was fixed at 50 μM. The assay kits for Plk1 and RSK2 were obtained from Promega (Madison, Wis.), which use ADP-Glo™ for activity detection.

BT474 cells [4] = assay: Glucose consumption and lactate secretion in BT474 cells; assay type: cell-based
Procedure: To measure glucose consumption and lactate production, a total of 1×10^5 cells were seeded into each well of a 12-well plate and cultured in the presence of compound for 48 hrs. The culture media were collected and deproteinized by centrifugation using an Amicon Ultra centrifugal filter (3 kDa cut-off), while cells were lysed and used for protein concentration determination by BCA assay. The media were assayed immediately for glucose and lactate levels using colorimetric assay kits from BioVision following the manufacturer's protocols. The values were normalized against protein concentration. All measurements were made in triplicate.

EIF2AK3 = EIF2AK3 (Homo sapiens, UniProt Q9NZJ5); assay: HotSpot protein kinase panel; settings: read-out: EIF2AK3 activity remaining
c-MER = c-MER (Homo sapiens, UniProt Q12866); assay: HotSpot protein kinase panel; settings: read-out: c-MER activity remaining
Chain of c-MER (Q12866 21-999): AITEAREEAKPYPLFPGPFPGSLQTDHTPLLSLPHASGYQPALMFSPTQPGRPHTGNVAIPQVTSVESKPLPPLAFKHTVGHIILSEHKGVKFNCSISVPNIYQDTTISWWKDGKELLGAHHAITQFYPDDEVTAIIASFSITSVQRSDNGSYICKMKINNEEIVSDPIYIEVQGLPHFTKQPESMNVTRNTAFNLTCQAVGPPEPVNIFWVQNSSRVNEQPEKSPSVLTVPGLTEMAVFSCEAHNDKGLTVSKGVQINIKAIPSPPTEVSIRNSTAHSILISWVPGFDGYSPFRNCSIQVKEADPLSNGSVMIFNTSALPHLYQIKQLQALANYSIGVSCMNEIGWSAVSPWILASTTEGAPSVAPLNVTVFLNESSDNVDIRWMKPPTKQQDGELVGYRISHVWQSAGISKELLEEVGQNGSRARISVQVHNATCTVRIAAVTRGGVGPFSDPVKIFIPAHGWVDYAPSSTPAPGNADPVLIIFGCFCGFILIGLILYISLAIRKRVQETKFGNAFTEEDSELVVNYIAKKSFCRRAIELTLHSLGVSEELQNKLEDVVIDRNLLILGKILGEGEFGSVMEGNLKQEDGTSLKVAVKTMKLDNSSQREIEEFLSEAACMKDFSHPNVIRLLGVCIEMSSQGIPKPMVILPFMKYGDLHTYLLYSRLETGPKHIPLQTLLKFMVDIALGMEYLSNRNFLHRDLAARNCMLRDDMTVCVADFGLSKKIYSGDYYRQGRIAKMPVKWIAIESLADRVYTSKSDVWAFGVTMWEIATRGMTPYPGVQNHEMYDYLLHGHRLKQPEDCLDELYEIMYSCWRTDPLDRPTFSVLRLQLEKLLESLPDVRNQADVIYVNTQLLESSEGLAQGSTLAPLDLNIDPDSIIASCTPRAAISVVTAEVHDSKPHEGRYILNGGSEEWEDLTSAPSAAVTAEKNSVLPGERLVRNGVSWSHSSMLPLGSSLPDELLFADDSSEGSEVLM

L6 myotubes [5] = assay: 2-deoxyglucose uptake; assay type: cell-based, rat; settings: overnight treatment with 20 μM 7a or 1 mM metformin
Procedure: To measure 2-deoxyglucose (2-DG) uptake, L6 myotubes were treated with compound or DMSO control overnight in the absence of serum in α-MEM. Following treatment, cells were washed twice with KRH buffer (50 mM HEPES pH 7.4, 137 mM NaCl, 4.7 mM KCl, 1.85 mM CaCl2, 1.3 mM MgSO4) containing 0.1% BSA. Residual wash buffer was removed by aspiration. Cells were then incubated for 10 min at 37° C. in a KRH buffer containing 0.1% BSA, 5 mM unlabeled 2-DG and 2 μCi/ml [1,2-^3H(N)]-2-deoxy-D-glucose (PerkinElmer). The uptake was terminated by washing four times with ice-cold KRH buffer containing 0.1% BSA. Nonspecific 2-DG uptake into cells was determined in the presence of 10 μM cytochalasin B, which inhibits glucose transporters, and subtracted. The cells were lysed with 0.05 M NaOH for 2 hrs at 37° C. 10 μl cell lysate was used to quantify protein concentration by BCA assay. The remaining sample was transferred to a scintillation vial containing 3 ml Opti-Fluor liquid scintillation cocktail (PerkinElmer), and radioactivity was determined using a Beckman Coulter LS 6500 scintillation system and normalized against protein concentration.

mTOR/FRAP1 = mTOR/FRAP1 (Homo sapiens, UniProt P42345); assay: In vitro kinase profiling; assay type: biochemical
RSK2 = RSK2 (Homo sapiens, UniProt P51812); assay: RSK2 kinase assay kit (Promega, ADP-Glo)
Chain of RSK2 (P51812 whole entry): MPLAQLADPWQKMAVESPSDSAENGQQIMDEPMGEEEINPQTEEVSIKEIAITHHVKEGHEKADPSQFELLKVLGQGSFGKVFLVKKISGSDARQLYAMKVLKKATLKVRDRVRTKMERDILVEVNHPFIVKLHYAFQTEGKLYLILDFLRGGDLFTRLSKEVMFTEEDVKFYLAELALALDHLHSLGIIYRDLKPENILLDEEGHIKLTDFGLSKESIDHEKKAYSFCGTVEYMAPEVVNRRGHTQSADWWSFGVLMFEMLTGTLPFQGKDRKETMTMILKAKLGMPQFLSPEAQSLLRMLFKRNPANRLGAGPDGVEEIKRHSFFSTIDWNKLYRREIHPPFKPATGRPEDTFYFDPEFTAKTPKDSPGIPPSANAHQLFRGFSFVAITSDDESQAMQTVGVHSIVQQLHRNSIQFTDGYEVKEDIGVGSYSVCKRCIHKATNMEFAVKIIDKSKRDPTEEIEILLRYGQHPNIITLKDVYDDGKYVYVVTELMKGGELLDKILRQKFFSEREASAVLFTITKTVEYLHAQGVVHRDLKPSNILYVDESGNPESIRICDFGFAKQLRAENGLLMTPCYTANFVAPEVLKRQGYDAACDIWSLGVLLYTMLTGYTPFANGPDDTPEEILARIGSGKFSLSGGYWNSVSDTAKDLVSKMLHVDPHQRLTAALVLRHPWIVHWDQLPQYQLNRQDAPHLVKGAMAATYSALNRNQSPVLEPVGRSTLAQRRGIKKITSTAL
Description: (§2) The assay kits for Plk1 and RSK2 were obtained from Promega (Madison, Wis.), which use ADP-Glo™ for activity detection.

p110α/p85α = p110α/p85α (Homo sapiens, UniProt P42336); assay: In vitro lipid kinase profiling
PI4P5Kα = PI4P5Kα (Homo sapiens, UniProt Q99755); assay: Lipid kinase assay / panel (ADP-Glo)
Chain of PI4P5Kα (Q99755 whole entry): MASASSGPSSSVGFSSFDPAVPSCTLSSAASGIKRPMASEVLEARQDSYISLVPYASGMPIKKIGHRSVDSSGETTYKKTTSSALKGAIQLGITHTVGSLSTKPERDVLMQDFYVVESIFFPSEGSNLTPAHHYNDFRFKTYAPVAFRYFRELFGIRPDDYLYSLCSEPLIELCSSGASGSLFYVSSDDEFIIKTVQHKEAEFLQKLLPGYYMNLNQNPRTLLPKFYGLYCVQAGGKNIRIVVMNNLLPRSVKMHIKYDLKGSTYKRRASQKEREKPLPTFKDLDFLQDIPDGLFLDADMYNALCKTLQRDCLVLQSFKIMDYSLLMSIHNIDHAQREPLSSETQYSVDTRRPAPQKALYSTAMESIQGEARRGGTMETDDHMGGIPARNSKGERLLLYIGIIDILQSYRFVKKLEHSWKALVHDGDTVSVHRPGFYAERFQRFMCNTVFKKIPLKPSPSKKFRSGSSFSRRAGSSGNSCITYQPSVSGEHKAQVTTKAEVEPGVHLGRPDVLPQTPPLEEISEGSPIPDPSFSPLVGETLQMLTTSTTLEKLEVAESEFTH
Description: as §2

TYRO3 = TYRO3 (Homo sapiens, UniProt Q06418); assay: HotSpot protein kinase panel; settings: read-out: TYRO3 activity remaining
NEK1 = NEK1 (Homo sapiens, UniProt Q96PY6); assay: HotSpot protein kinase panel; settings: read-out: NEK1 activity remaining

CN1C(=O)[C@@H](CC2CCCC2)N(C2CCCC2)c2nc(Nc3cc(Cl)c(O)c(Cl)c3)ncc21 [7a, (R)-8-cyclopentyl-7-(cyclopentylmethyl)-2-((3,5-dichloro-4-hydroxyphenyl)amino)-5-methyl-7,8-dihydropteridin-6(5H)-one]
pKi (PI3Kδ): ~6.92
phosphorylation of acetyl-CoA carboxylase (ACC) (L6 myotubes [1]): significantly increased
remaining activity at 0.5 µM (PI4P5Kγ): 98%
cell cycle distribution (BT474 cells [2]): accumulation of cells in the G0/G1 phase
pKi (PIKfyve): ~6.70
p38 phosphorylation (BT474 cells [3]; 20 μM): increased
levels of cell-cycle inhibitors p21 and p27 (BT474 cells [3]; BT474): increased levels
mTORC1 activity (S6K phosphorylation) (BT474 cells [3]; BT474): less S6K phosphorylation
AMPK activation (phosphorylation of ACC and raptor) (BT474 cells [3]; BT474, 0, 10 and 20 μM): activated
AMPK activation (BT474 cells [3]; BT474, absence of serum): caused AMPK activation
AMPK activation (BT474 cells [3]; BT474, with serum, 32° C.): no longer caused AMPK activation
AMPK activation (BT474 cells [3]; BT474, with serum, 37° C.): activated
remaining activity at 0.5 µM (Plk1): 97%
lactate fermentation (BT474 cells [4]; absence of serum): slightly increased
metabolic switch induced by serum (glucose consumption, lactate secretion) (BT474 cells [4]; with serum): prevented
remaining activity at 0.5 µM (EIF2AK3): 50%
remaining activity at 0.5 µM (c-MER): 67%
rate of glucose uptake (labeled 2-deoxyglucose) (L6 myotubes [5]): doubled
inhibition of mTOR/FRAP1 in vitro (mTOR/FRAP1): did not inhibit
pKi (RSK2): ~6.00
calculated RSK2 activity, % of DMSO control (RSK2; calculated for 0.5 μM 7a and 20 μM ATP): 79%
inhibition of p110α/p85α (p110α/p85α): not inhibited
pKi (PI4P5Kα): ~5.30
remaining activity at 0.5 µM (PI4P5Kα; read-out: PI4P5Kα activity remaining): 95%
remaining activity at 0.5 µM (TYRO3): 72%
remaining activity at 0.5 µM (NEK1): 67%
